Results as given in patent publication US8937072B2, “Substituted cyanoaniline compounds, preparation and use thereof” (Sinochem Corporation, priority 2011, dated 2015).

Key:
[1] = system: rice blast; test: microbe, parasite or virus in culture; type: cell-based; details: for the inhibition rate against rice blast (%) 0.03 mg/L: Table 21, 0.03 mg/L; for the inhibition rate against rice blast (%) 0.1 mg/L: Table 21, 0.1 mg/L; for the inhibition rate against rice blast (%) 0.3 mg/L: Table 21, 0.3 mg/L
[2] = system: cucumber downy mildew; test: Protectant activity in vivo (whole plant) against cucumber downy mildew
How it was run: (§1)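 Compound stock in organic solvent (≤5% v/v) diluted in water with 0.1% Tween-80 and sprayed onto whole host plants. Fungal inoculation 24 h later; humidity chamber then greenhouse as the pathogen requires. Activity rated visually, usually after 7 days.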

[3] = system: corn rust; test: Protectant activity in vivo (whole plant) against corn rust; details: for protectant activity against corn rust in vivo: dose 400 mg/L
How it was run: as §1

[4] = system: cucumber gray mold; test: Activity in vitro (96-well, High Through Put): inhibition rate against cucumber gray mold; type: cell-based
How it was run: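 Compound in acetone, methanol or DMF was combined with pathogen suspension under sterile conditions and held in a constant-temperature box. After 24 hours germination or growth was scored by eye against an untreated control to give the inhibition rate.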

[5] = system: wheat powdery mildew; test: Protectant activity in vivo (whole plant) against wheat powdery mildew
Description: The method is as followed: The whole plant is used in this test. The compound is dissolved in a proper solvent to get mother solution. The proper solvent is selected from acetone, methanol, DMF and so on according to their dissolving capability to the sample. The volume rate of solvent and testing solution (v/v) is equal to or less than 5%. The mother solution is diluted with water containing 0.1% tween-80 to get the testing solution whose concentration is designed. The testing solution is sprayed to the host plant by a special plant sprayer. The plant is inoculated with fungus after 24 hours. According to the infecting characteristic of fungus, the plant is stored in a humidity chamber and then transferred into greenhouse after infection is finished. And the other plants are placed in greenhouse directly. The activity of compound is obtained by eyeballing after 7 days in common.

| Compound | the inhibition rate against rice blast (%) 0.03 mg/L [1] [%] | the inhibition rate against rice blast (%) 0.1 mg/L [1] [%] | the inhibition rate against rice blast (%) 0.3 mg/L [1] [%] | protectant activity against cucumber downy mildew in vivo ([2]; dose 50 mg/L) [%] | protectant activity against cucumber downy mildew in vivo ([2]; dose 100 mg/L) [%] | protectant activity against cucumber downy mildew in vivo ([2]; dose 400 mg/L) [%] | the protectant activity (%) against corn rust ([3]; 6.25 mg/L) [%] | the protectant activity (%) against corn rust ([3]; 25 mg/L) [%] | the protectant activity (%) against corn rust ([3]; 100 mg/L) [%] | the protectant activity (%) against corn rust ([3]; 400 mg/L) [%] | the inhibition rate against cucumber gray mold (%) ([4]; 0.9 mg/L) | the inhibition rate against cucumber gray mold (%) ([4]; 2.8 mg/L) | the inhibition rate against cucumber gray mold (%) ([4]; 8.3 mg/L) | protectant activity against wheat powdery mildew in vivo ([5]; dose 400 mg/L) [%] | protectant activity against corn rust in vivo [3] [%] | also measured |
| --- | --- | --- | --- | --- | --- | --- | --- | --- | --- | --- | --- | --- | --- | --- | --- | --- |
| N#Cc1c(Cl)c(Cl)c(Nc2c(F)cc([N+](=O)[O-])cc2Cl)c(C#N)c1Cl [Compound B-53] | 100 | 100 | 100 | 98 | 100 | 100 | 30 | 50 | 80 | 100 | 100 | 100 | 100 |  |  | the inhibition rate against cucumber gray mold (%) ([4]; 0.3 mg/L): 0% |
| N#Cc1c(F)c(F)c(C#N)c(Nc2ccc(C(F)(F)F)cc2Cl)c1F [Compound C-82] |  |  |  |  |  | 100 |  |  |  |  |  |  |  | 100 |  |  |
| N#Cc1c(Cl)c(Cl)c(Nc2nc(Cl)c(Cl)c(Cl)c2Cl)c(C#N)c1Cl [Compound B-128b] | 80 | 80 | 100 |  | 100 | 100 |  |  |  |  |  |  |  | 80 | 100 |  |
| COc1c(Cl)c(Nc2c(Cl)cc([N+](=O)[O-])cc2Cl)c(C#N)c(Cl)c1C#N [Compound B-74] | 0 | 50 | 100 | 98 | 100 | 100 | 40 | 70 | 95 | 100 | 80 | 100 | 100 |  | 100 | the protectant activity (%) against cucumber downy mildew ([2]; 25 mg/L): 80%; the protectant activity (%) against cucumber downy mildew ([2]; 50 mg/L): 98%; the protectant activity (%) against cucumber downy mildew ([2]; 100 mg/L): 100% |
| N#Cc1cc([N+](=O)[O-])cc(Br)c1Nc1c(Cl)c(Cl)c(C#N)c(C#N)c1Cl [Compound A-42] |  |  |  |  |  |  |  |  |  |  |  |  |  | 98 |  | protectant activity against wheat powdery mildew in vivo ([5]; dose 100 mg/L): 80% |
| N#Cc1c(Cl)c(Cl)c(Nc2c(Cl)cc([N+](=O)[O-])cc2Cl)c(C#N)c1Cl [Compound B-54] | 0 | 0 | 100 | 100 | 100 | 100 | 65 | 80 | 90 | 100 | 100 | 100 | 100 |  | 100 | inhibition rate against rice blast ([1]; in vitro, dose 0.3 mg/L): 80%; the protectant activity (%) against cucumber downy mildew ([2]; 25 mg/L): 75%; the protectant activity (%) against cucumber downy mildew ([2]; 50 mg/L): 100%; the protectant activity (%) against cucumber downy mildew ([2]; 100 mg/L): 100%; the inhibition rate against cucumber gray mold (%) ([4]; 0.3 mg/L): 100%; inhibition rate against cucumber gray mold ([4]; in vitro, dose 0.3 mg/L): 80% |
| N#Cc1c(F)c(F)c(C#N)c(Nc2ccc(Cl)c(C(F)(F)F)c2)c1F [Compound C-91] |  |  |  |  |  |  |  |  |  |  |  |  |  | 100 |  | protectant activity against wheat powdery mildew in vivo ([5]; dose 6.25 mg/L): 70%; protectant activity against wheat powdery mildew in vivo ([5]; dose 100 mg/L): 95% |
